Consider 28 compounds from patent US20180140602A1, “COMBINATION OF CHIMERIC ANTIGEN RECEPTOR THERAPY AND AMINO PYRIMIDINE DERIVATIVES” (Novartis AG, priority 2015, published 2018).

In the assay the target is T1, BTK (Homo sapiens, UniProt Q06187).
T1 construct: Whole blood was collected with written consent from healthy volunteers by venipuncture into sodium heparin vials; endogenous in cells; host or cells: B cells in heparinised whole blood of healthy human volunteers
The assay can be described thus: Inhibition of BTK activity in blood (anti-IgM/IL-4 B cell activation, CD69).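 Note: heparinized blood from healthy donors, read by flow cytometry, with inhibition derived from the percentage of CD69-positive cells within the CD19-positive lymphocyte gate.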 Format: cell-based. To be noted: human whole blood, anti-IgM/IL-4, CD69 on CD19+ cells, 20 hours.

pIC50: −log10 of the molar value.

Usually pIC50 stands for the negative decadic logarithm of the IC50, by convention in mol/L. Read a high pIC50 as a small IC50.

T1 sequence (Q06187 whole entry): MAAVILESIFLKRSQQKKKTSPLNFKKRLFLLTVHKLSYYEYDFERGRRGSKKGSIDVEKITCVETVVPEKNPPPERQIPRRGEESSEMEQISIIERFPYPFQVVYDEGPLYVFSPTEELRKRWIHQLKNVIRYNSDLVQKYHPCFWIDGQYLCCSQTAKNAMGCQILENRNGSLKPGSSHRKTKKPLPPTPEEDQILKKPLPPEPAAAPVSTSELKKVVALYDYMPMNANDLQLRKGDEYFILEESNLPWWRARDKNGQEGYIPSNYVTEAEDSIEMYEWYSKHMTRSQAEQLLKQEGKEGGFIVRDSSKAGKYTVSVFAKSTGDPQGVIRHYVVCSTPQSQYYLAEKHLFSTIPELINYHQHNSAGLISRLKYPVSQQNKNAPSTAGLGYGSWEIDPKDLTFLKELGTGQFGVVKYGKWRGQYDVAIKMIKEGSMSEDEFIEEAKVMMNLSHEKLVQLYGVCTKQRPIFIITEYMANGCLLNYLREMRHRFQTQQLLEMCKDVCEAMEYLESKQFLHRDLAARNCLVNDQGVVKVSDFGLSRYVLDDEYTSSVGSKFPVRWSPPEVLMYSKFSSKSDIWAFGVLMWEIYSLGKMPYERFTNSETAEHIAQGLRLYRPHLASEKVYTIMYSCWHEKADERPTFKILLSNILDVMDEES

`CC#CC(=O)N(C)[C@@H](C)COc1c(N)ncnc1-c1cc(F)cc(NC(=O)c2ccc(C3CC3)cc2F)c1C` [Example 20] gave a pIC50 of 6.48. Compound `C=CC(=O)N(C)[C@@H](C)COc1c(N)ncnc1-c1cc(F)cc(NC(=O)c2ccc(C3CC3)cc2F)c1C` [Example 19, (S)—N-(3-(6-Amino-5-(2-(N-methylacrylamido)propoxy)pyrimidin-4-yl)-5-fluoro-2-methylphenyl)-4-cyclopropyl-2-fluorobenzamide] gave a negative logarithm of the IC50 (pIC50) of 6.87. On to `C=CC(=O)N(CCF)CCOc1c(N)ncnc1-c1cc(F)cc(NC(=O)c2ccc(C3CC3)cc2F)c1C` [Example 15, N-(3-(6-Amino-5-(2-(N-(2-fluoroethyl)acrylamido)ethoxy)pyrimidin-4-yl)-5-fluoro-2-methylphenyl)-4-cyclopropyl-2-fluorobenzamide], for which the pIC50 was 7.54. For `C#CC(=O)N1CC(Oc2c(N)ncnc2-c2cc(F)cc(NC(=O)c3ccc(C4CC4)cc3F)c2C)C1` [Example 3, N-(3-(6-Amino-5-((1-propioloylazetidin-3-yl)oxy)pyrimidin-4-yl)-5-fluoro-2-methylphenyl)-4-cyclopropyl-2-fluorobenzamide] the value was 6.91; for `CC#CC(=O)N1C[C@H](OC)C[C@H]1COc1c(N)ncnc1-c1cc(F)cc(NC(=O)c2ccc(C3CC3)cc2F)c1C` [Example 27, N-(3-(6-Amino-5-(((2S,4R)-1-(but-2-ynoyl)-4-methoxypyrrolidin-2-yl)methoxy)pyrimidin-4-yl)-5-fluoro-2-methylphenyl)-4-cyclopropyl-2-fluorobenzamide], 7.12; for `C=CC(=O)N(C)CCOc1c(N)ncnc1-c1cccc(-n2ccc3cc(C4CC4)cc(F)c3c2=O)c1` [Example 12, N-(2-((4-Amino-6-(3-(6-cyclopropyl-8-fluoro-1-oxoisoquinolin-2(1H)-yl)phenyl)pyrimidin-5-yl)oxy)ethyl)-N-methylacrylamide], 6.34. `C=CC(=O)N1C[C@H](C#N)C[C@H]1COc1c(N)ncnc1-c1cc(F)cc(NC(=O)c2ccc(C3CC3)cc2F)c1C` [Example 39, N-(3-(5-(((2S,4R)-1-Acryloyl-4-cyanopyrrolidin-2-yl)methoxy)-6-aminopyrimidin-4-yl)-5-fluoro-2-methylphenyl)-4-cyclopropyl-2-fluorobenzamide] showed a negative logarithm of the IC50 (pIC50) of 6.75. `C=CC(=O)N1C[C@H](F)C[C@H]1COc1c(N)ncnc1-c1cc(F)cc(NC(=O)c2ccc(C3CC3)cc2F)c1C` [Example 31, N-(3-(5-(((2S,4R)-1-Acryloyl-4-fluoropyrrolidin-2-yl)methoxy)-6-aminopyrimidin-4-yl)-5-fluoro-2-methylphenyl)-4-cyclopropyl-2-fluorobenzamide] showed a pIC50 of 7.60. Regarding `C=CC(=O)N[C@@H](C)COc1c(N)ncnc1-c1cc(F)cc(NC(=O)c2ccc(C3CC3)cc2F)c1C` [Example 17, (S)—N-(3-(5-(2-Acrylamidopropoxy)-6-aminopyrimidin-4-yl)-5-fluoro-2-methylphenyl)-4-cyclopropyl-2-fluorobenzamide], the pIC50 is 6.61.

The compound `CC#CC(=O)N1C[C@H](F)C[C@H]1COc1c(N)ncnc1-c1cc(F)cc(NC(=O)c2ccc(C3CC3)cc2F)c1C` [Example 32, N-(3-(6-Amino-5-(((2S,4R)-1-(but-2-ynoyl)-4-fluoropyrrolidin-2-yl)methoxy)pyrimidin-4-yl)-5-fluoro-2-methylphenyl)-4-cyclopropyl-2-fluorobenzamide] had a pIC50 of 7.26.

Take `CC#CC(=O)N[C@@H](C)COc1c(N)ncnc1-c1cc(F)cc(NC(=O)c2ccc(C3CC3)cc2F)c1C` [Example 18]: the pIC50 is 6.38. As for `C=CC(=O)N1C[C@H](OC)C[C@H]1COc1c(N)ncnc1-c1cc(F)cc(N2CCc3cc(C4CC4)ccc3C2=O)c1CO` [Example 28, 2-(3-(5-(((2S,4R)-1-Acryloyl-4-methoxypyrrolidin-2-yl)methoxy)-6-aminopyrimidin-4-yl)-5-fluoro-2-(hydroxymethyl)phenyl)-6-cyclopropyl-3,4-dihydroisoquinolin-1(2H)-one], the pIC50 is 7.48. Consider `CC#CC(=O)N1CC(Oc2c(N)ncnc2-c2cc(F)cc(NC(=O)c3ccc(C4CC4)cc3F)c2C)C1` [Example 4, N-(3-(6-Amino-5-((1-(but-2-ynoyl)azetidin-3-yl)oxy)pyrimidin-4-yl)-5-fluoro-2-methylphenyl)-4-cyclopropyl-2-fluorobenzamide], for which the pIC50 was 6.42. For the compound `CC#CC(=O)N1C[C@@H](OC)C[C@H]1COc1c(N)ncnc1-c1cc(F)cc(NC(=O)c2ccc(C3CC3)cc2F)c1C` [Example 30, N-(3-(6-Amino-5-(((2S,4S)-1-(but-2-ynoyl)-4-methoxypyrrolidin-2-yl)methoxy)pyrimidin-4-yl)-5-fluoro-2-methylphenyl)-4-cyclopropyl-2-fluorobenzamide], the pIC50 was 6.65.

`C=CC(=O)NC1(COc2c(N)ncnc2-c2cc(F)cc(NC(=O)c3ccc(C4CC4)cc3F)c2C)CC1` [Example 16, N-(3-(5-((1-Acrylamidocyclopropyl)methoxy)-6-aminopyrimidin-4-yl)-5-fluoro-2-methylphenyl)-4-cyclopropyl-2-fluorobenzamide] gave a pIC50 of 6.25.

On to `C#CC(=O)N1CC[C@H]1COc1c(N)ncnc1-c1cc(F)cc(NC(=O)c2ccc(C3CC3)cc2F)c1C` [Example 34], for which the pIC50 was 6.68. For `C=CC(=O)N1CC[C@H]1COc1c(N)ncnc1-c1cc(F)cc(N2CCc3cc(C4CC4)ccc3C2=O)c1CO` [Example 35, (S)-2-(3-(5-((1-Acryloylazetidin-2-yl)methoxy)-6-aminopyrimidin-4-yl)-5-fluoro-2-(hydroxymethyl)phenyl)-6-cyclopropyl-3,4-dihydroisoquinolin-1(2H)-one] the value was 7.14; for `CC#CC(=O)N1CCC[C@H]1COc1c(N)ncnc1-c1cc(F)cc(NC(=O)c2ccc(C3CC3)cc2F)c1C` [Example 23], 7.24; for `C=CC(=O)N(C)CCOc1c(N)ncnc1-c1cc(F)cc(N2CCc3cc(C4CC4)ccc3C2=O)c1CO` [Example 25, N-(2-((4-Amino-6-(3-(6-cyclopropyl-1-oxo-3,4-dihydroisoquinolin-2(1H)-yl)-5-fluoro-2-(hydroxymethyl)phenyl)pyrimidin-5-yl)oxy)ethyl)-N-methylacrylamide], 7.19. In turn, `C=CC(=O)N1C[C@@H](OC)C[C@H]1COc1c(N)ncnc1-c1cc(F)cc(NC(=O)c2ccc(C3CC3)cc2F)c1C` [Example 29, N-(3-(5-(((2S,4S)-1-Acryloyl-4-methoxypyrrolidin-2-yl)methoxy)-6-aminopyrimidin-4-yl)-5-fluoro-2-methylphenyl)-4-cyclopropyl-2-fluorobenzamide] had a pIC50 of 6.87. The same measure for `C=CC(=O)N1C[C@@H](C#N)C[C@H]1COc1c(N)ncnc1-c1cc(F)cc(NC(=O)c2ccc(C3CC3)cc2F)c1C` [Example 40, N-(3-(5-(((2S,4S)-1-Acryloyl-4-cyanopyrrolidin-2-yl)methoxy)-6-aminopyrimidin-4-yl)-5-fluoro-2-methylphenyl)-4-cyclopropyl-2-fluorobenzamide]: 7.10. As for `C/C=C/C(=O)N1CC(Oc2c(N)ncnc2-c2cc(F)cc(NC(=O)c3ccc(C4CC4)cc3F)c2C)C1` [Example 2, (E)-N-(3-(6-Amino-5-((1-(but-2-enoyl)azetidin-3-yl)oxy)pyrimidin-4-yl)-5-fluoro-2-methylphenyl)-4-cyclopropyl-2-fluorobenzamide], the pIC50 was 5.95. `C=CC(=O)N1C[C@H](OC)C[C@H]1COc1c(N)ncnc1-c1cc(F)cc(NC(=O)c2ccc(C3CC3)cc2F)c1C` [Example 26, N-(3-(5-(((2S,4R)-1-Acryloyl-4-methoxypyrrolidin-2-yl)methoxy)-6-aminopyrimidin-4-yl)-5-fluoro-2-methylphenyl)-4-cyclopropyl-2-fluorobenzamide]: the pIC50 was 7.29.

For the compound `C=CC(=O)N1CCC[C@@H](COc2c(N)ncnc2-c2cc(F)cc(NC(=O)c3ccc(C4CC4)cc3F)c2C)C1` [Example 37, (R)—N-(3-(5-((1-Acryloylpiperidin-3-yl)methoxy)-6-aminopyrimidin-4-yl)-5-fluoro-2-methylphenyl)-4-cyclopropyl-2-fluorobenzamide], the pIC50 is 6.01. Compound `C=CC(=O)N1CC[C@H](OC)[C@H]1COc1c(N)ncnc1-c1cc(F)cc(NC(=O)c2ccc(C3CC3)cc2F)c1C` [Example 38, N-(3-(5-(((2R,3S)-1-Acryloyl-3-methoxypyrrolidin-2-yl)methoxy)-6-aminopyrimidin-4-yl)-5-fluoro-2-methylphenyl)-4-cyclopropyl-2-fluorobenzamide] showed a pIC50 of 7.15.

For `Cc1c(NC(=O)c2ccc(C3CC3)cc2F)cc(F)cc1-c1ncnc(N)c1OCCN(C)C(=O)C1CO1` (stereo not shown) [Example 11, N-(2-((4-Amino-6-(3-(4-cyclopropyl-2-fluorobenzamido)-5-fluoro-2-methylphenyl)pyrimidin-5-yl)oxy)ethyl)-N-methyloxirane-2-carboxamide], the pIC50 is 6.49. The same measure for `COC/C=C/C(=O)N(C)CCOc1c(N)ncnc1-c1cc(F)cc(NC(=O)c2ccc(C3CC3)cc2F)c1C` [Example 9, (E)-N-(3-(6-Amino-5-(2-(4-methoxy-N-methylbut-2-enamido)ethoxy)pyrimidin-4-yl)-5-fluoro-2-methylphenyl)-4-cyclopropyl-2-fluorobenzamide]: 6.62.

`C=CC(=O)N1CCC[C@H]1COc1c(N)ncnc1-c1cc(F)cc(N2CCc3cc(C4CC4)ccc3C2=O)c1CO` [Example 24, (S)-2-(3-(5-((1-Acryloylpyrrolidin-2-yl)methoxy)-6-aminopyrimidin-4-yl)-5-fluoro-2-(hydroxymethyl)phenyl)-6-cyclopropyl-3,4-dihydroisoquinolin-1(2H)-one]: the pIC50 is 7.49.
